Six molecules from ChEMBL document CHEMBL4828718, “Synthesis and Antifungal Activity Evaluation of Phloeodictine Analogues” (J Nat Prod, 2021) can be followed below.

Each structure is given as a SMILES string. The source made the active and inactive calls. The calls are words filed in the database; no cut-off is given here. Where only a bound is given, the exact number is not on record here.

In experiment [1] the test system is Cryptococcus neoformans. In words: Antifungal activity against Cryptococcus neoformans ATCC 90113 assessed as fungal growth inhibition incubated for 72 hrs by alamar blue assay. The class given is functional. Conditions: Cryptococcus neoformans, ATCC 90113, 72 h, read-out: MIC.
Experiment [2] relates to Cryptococcus neoformans. In words: Fungicidal activity against Cryptococcus neoformans ATCC 90113 assessed as fungal growth inhibition incubated for 72 hrs by alamar blue assay. Type of experiment: functional. Conditions: Cryptococcus neoformans, ATCC 90113, 72 h, read-out: MFC.
The test system of experiment [3] is Candida albicans. As to the kind of experiment: Antifungal activity against Candida albicans ATCC 90028 assessed as fungal growth inhibition incubated for 18 to 24 hrs by alamar blue assay. Type of experiment: functional.
For experiment [4], the system named is Candida albicans. As to the kind of experiment: Fungicidal activity against Candida albicans ATCC 90028 assessed as fungal growth inhibition incubated for 18 to 24 hrs by alamar blue assay. The class given is functional.
Experiment [5] deals with Nakaseomyces glabratus. As to the kind of experiment: Antifungal activity against Candida glabrata ATCC 90030 assessed as fungal growth inhibition incubated for 18 to 24 hrs by alamar blue assay. Type of experiment: functional.
The subject of experiment [6] is Nakaseomyces glabratus. In words: Fungicidal activity against Candida glabrata ATCC 90030 assessed as fungal growth inhibition incubated for 18 to 24 hrs by alamar blue assay. The class given is functional.
The subject of experiment [7] is Pichia kudriavzevii. In words: Antifungal activity against Candida krusei ATCC 6258 assessed as fungal growth inhibition incubated for 18 to 24 hrs by alamar blue assay. The class given is functional.
Experiment [8] relates to Pichia kudriavzevii. As to the kind of experiment: Fungicidal activity against Candida krusei ATCC 6258 assessed as fungal growth inhibition incubated for 18 to 24 hrs by alamar blue assay. Type of experiment: functional.
For experiment [9], the system named is Aspergillus fumigatus. As to the kind of experiment: Antifungal activity against Aspergillus fumigatus ATCC 90906 assessed as fungal growth inhibition incubated for 72 hrs by alamar blue assay. The class given is functional.
Experiment [10] deals with Aspergillus fumigatus. In words: Fungicidal activity against Aspergillus fumigatus ATCC 90906 assessed as fungal growth inhibition incubated for 72 hrs by alamar blue assay. Type of experiment: functional.
The test system of a further experiment is Vero. As to the kind of experiment: Cytotoxicity against African green monkey Vero cells assessed as reduction in cell viability incubated for 48 hrs by neutral red dye based assay. Details: species or system Chlorocebus sabaeus. Conditions: Chlorocebus sabaeus, Vero, 48 h.
The mark [11] stands for this setting: Candida albicans, ATCC 90028, time 18-24 hrs, read-out: MIC.
Setting [12] is: Candida albicans, ATCC 90028, time 18-24 hrs, read-out: MFC.
[13] abbreviates: Nakaseomyces glabratus, ATCC 90030, time 18-24 hrs, read-out: MIC.
[14] abbreviates: Nakaseomyces glabratus, ATCC 90030, time 18-24 hrs, read-out: MFC.
Setting [15] is: Pichia kudriavzevii, ATCC 6258, time 18-24 hrs, read-out: MIC.
[16] abbreviates: Pichia kudriavzevii, ATCC 6258, time 18-24 hrs, read-out: MFC.
Where [17] appears, read: Aspergillus fumigatus, ATCC 90906, 72 h, read-out: MIC.
Setting [18] is: Aspergillus fumigatus, ATCC 90906, 72 h, read-out: MFC.

`CCCCCCCCCCCCCCC1(O)C(C)=C(C)C2=[N+](CC(=O)NCCCC)CCCN21` (stereo unspecified): the MIC in the experiment on Cryptococcus neoformans [1] came out at 1.8 µM; in the experiment on Candida albicans [3] (setting [11]), 7.5 µM; with Nakaseomyces glabratus [5] (setting [13]), 5.2 µM; in the experiment with Pichia kudriavzevii [7] (setting [15]), 3.8 µM; in the experiment on Aspergillus fumigatus [9] (setting [17]) it was 7.5 µM. In addition, the MFC was 1.8 µM in the experiment with Cryptococcus neoformans [2]; 10 µM in the experiment with Candida albicans [4] (setting [12]); 5.9 µM with Nakaseomyces glabratus [6] (setting [14]); 3.8 µM with Pichia kudriavzevii [8] (setting [16]); 7.5 µM in the experiment with Aspergillus fumigatus [10] (setting [18]). In addition, the IC50 in the experiment with Vero worked out at 45 µM.
Regarding `C=CC[N+]1=C2C(C)=C(C)C(O)(CCCCCCCCCCCCCC)N2CCC1` (stereo unspecified), the minimal inhibitory concentration (MIC) in the experiment on Cryptococcus neoformans [1] came out at 1 µM; in the experiment on Candida albicans [3] (setting [11]), 3.5 µM; in the experiment on Nakaseomyces glabratus [5] (setting [13]) it was 3.5 µM; with Pichia kudriavzevii [7] (setting [15]), 2.5 µM; with Aspergillus fumigatus [9] (setting [17]) it was 5.2 µM. For the same molecule, the MFC amounted to 4.1 µM with Cryptococcus neoformans [2]; 4.3 µM in the experiment on Candida albicans [4] (setting [12]); 5.2 µM in the experiment on Nakaseomyces glabratus [6] (setting [14]); 2.5 µM in the experiment on Pichia kudriavzevii [8] (setting [16]); 17 µM with Aspergillus fumigatus [10] (setting [18]). In addition, the IC50 in the experiment on Vero is 32 µM.
Regarding `CCCCCCCCCCCCCCC1(O)C(C)=C(C)C2=[N+](CC(=O)O)CCCN21` (stereo unspecified), the minimum inhibitory concentration (MIC) in the experiment on Cryptococcus neoformans [1] was determined as 5.4 µM. The MFC with Cryptococcus neoformans [2] turned out to be 5.4 µM. The MIC entry in the experiment with Candida albicans [3] (time 18-24 hrs), in the experiment with Nakaseomyces glabratus [5] (time 18-24 hrs), in the experiment with Pichia kudriavzevii [7] (time 18-24 hrs) and with Aspergillus fumigatus [9] was “inactive” in each case. The MFC entry in the experiment on Candida albicans [4] (time 18-24 hrs), in the experiment on Nakaseomyces glabratus [6] (time 18-24 hrs), with Pichia kudriavzevii [8] (time 18-24 hrs) and in the experiment with Aspergillus fumigatus [10] was “inactive” each time. Also, the IC50 in the experiment on Vero is more than 50 µM.
With `CCCCCCCCCCCCCCC1(O)C(C)=C(C)C2=[N+](Cc3ccc(OC)cc3)CCCN21` (stereo unspecified), the MIC in the experiment on Cryptococcus neoformans [1] was determined as 1.1 µM; with Candida albicans [3] (setting [11]) it was 3.7 µM; in the experiment on Nakaseomyces glabratus [5] (setting [13]), 3 µM; in the experiment with Pichia kudriavzevii [7] (setting [15]) it was 1.8 µM; in the experiment with Aspergillus fumigatus [9] (setting [17]), 3.7 µM. Moreover, the minimal fungicidal concentration (MFC) is 1.4 µM with Cryptococcus neoformans [2]; 3.7 µM with Candida albicans [4] (setting [12]); 3 µM with Nakaseomyces glabratus [6] (setting [14]); 2.7 µM in the experiment on Pichia kudriavzevii [8] (setting [16]); 5.1 µM with Aspergillus fumigatus [10] (setting [18]). In addition, the concentration for half-maximal inhibition (IC50) with Vero came out at 24 µM.
As to `CCCCCCCCCCCCCCC1(O)C(C)=C(C)C2=[N+](CC(=O)OCC)CCCN21` (stereo unspecified), the minimum inhibitory concentration (MIC) in the experiment on Cryptococcus neoformans [1] amounted to 1.9 µM; in the experiment on Candida albicans [3] (setting [11]) it was 9.4 µM; in the experiment with Nakaseomyces glabratus [5] (setting [13]) it was 6.2 µM; in the experiment on Pichia kudriavzevii [7] (setting [15]) it was 5.5 µM; in the experiment on Aspergillus fumigatus [9] (setting [17]), 9.4 µM. For the same molecule, the MFC was 2.8 µM with Cryptococcus neoformans [2]; 17 µM in the experiment with Candida albicans [4] (setting [12]); 11 µM in the experiment with Nakaseomyces glabratus [6] (setting [14]); 5.5 µM in the experiment on Pichia kudriavzevii [8] (setting [16]); 9.4 µM with Aspergillus fumigatus [10] (setting [18]). In the experiment with Vero, the 50% inhibitory concentration (IC50) was determined as 44 µM.
Regarding `CCCCCCCCCCCCCCC1(O)C(C)=C(C)C2=[N+](Cc3cccc(C(F)(F)F)c3)CCCN21` (stereo unspecified), the MIC in the experiment on Cryptococcus neoformans [1] came to 1.3 µM; in the experiment with Candida albicans [3] (setting [11]) it was 4.2 µM; in the experiment on Nakaseomyces glabratus [5] (setting [13]), 2 µM; in the experiment with Pichia kudriavzevii [7] (setting [15]), 2.8 µM; in the experiment on Aspergillus fumigatus [9] (setting [17]), 4.2 µM. The minimal fungicidal concentration (MFC) in the experiment on Cryptococcus neoformans [2] worked out at 1.7 µM; in the experiment with Candida albicans [4] (setting [12]) it was 4.2 µM; in the experiment with Nakaseomyces glabratus [6] (setting [14]), 2 µM; with Pichia kudriavzevii [8] (setting [16]) it was 2.8 µM; in the experiment on Aspergillus fumigatus [10] (setting [18]) it was 6.3 µM. In the experiment on Vero, the concentration for half-maximal inhibition (IC50) came out at 27 µM.
